Values quoted from earlier work as cited in patent publication US8252902B2, “Antibody targeting compounds” (The Scripps Research Institute, priority 2001, dated 2012).

Legend:
[1] = system: HIV primary isolates and laboratory-adapted strains
VEGFR-2 = VEGFR-2 (Homo sapiens, UniProt P35968)
[2] = system: VEGF-mediated angiogenesis

Chain of VEGFR-2 (P35968 20-1356, species assumed): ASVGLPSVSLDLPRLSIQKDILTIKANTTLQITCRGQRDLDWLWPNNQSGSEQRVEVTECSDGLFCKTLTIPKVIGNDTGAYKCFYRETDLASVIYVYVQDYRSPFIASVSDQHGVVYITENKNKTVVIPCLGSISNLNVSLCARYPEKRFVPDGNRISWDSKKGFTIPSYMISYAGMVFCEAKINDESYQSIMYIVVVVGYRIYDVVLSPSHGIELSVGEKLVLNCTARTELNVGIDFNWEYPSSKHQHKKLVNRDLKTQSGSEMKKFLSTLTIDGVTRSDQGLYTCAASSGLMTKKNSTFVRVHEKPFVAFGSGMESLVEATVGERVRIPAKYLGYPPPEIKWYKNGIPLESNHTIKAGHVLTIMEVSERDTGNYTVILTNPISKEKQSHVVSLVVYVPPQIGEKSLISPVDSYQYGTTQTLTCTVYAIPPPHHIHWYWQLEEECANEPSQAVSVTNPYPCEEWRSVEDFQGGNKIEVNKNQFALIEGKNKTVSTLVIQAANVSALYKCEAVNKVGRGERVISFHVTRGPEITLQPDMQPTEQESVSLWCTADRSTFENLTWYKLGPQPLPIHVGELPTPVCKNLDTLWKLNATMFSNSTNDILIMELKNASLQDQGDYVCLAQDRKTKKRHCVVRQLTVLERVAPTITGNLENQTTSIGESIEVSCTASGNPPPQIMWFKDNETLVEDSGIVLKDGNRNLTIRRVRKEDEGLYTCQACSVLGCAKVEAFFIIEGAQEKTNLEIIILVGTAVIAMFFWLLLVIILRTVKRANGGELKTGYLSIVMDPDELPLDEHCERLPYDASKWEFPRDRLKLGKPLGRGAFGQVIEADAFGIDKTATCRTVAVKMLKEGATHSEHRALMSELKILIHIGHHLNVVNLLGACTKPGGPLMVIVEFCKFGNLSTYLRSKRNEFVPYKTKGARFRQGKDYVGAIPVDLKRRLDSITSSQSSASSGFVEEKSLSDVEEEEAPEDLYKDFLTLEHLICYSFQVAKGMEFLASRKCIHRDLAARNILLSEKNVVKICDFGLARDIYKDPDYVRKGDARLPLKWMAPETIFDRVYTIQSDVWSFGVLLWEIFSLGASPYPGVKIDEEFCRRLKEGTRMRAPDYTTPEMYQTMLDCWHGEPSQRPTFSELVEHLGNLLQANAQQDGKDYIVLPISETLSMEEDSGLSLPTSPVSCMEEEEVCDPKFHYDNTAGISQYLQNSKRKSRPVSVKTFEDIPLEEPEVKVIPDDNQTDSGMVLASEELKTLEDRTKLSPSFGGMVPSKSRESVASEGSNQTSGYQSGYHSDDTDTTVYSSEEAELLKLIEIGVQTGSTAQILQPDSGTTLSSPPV

Row | Molecule | anti-HIV activity [1] | interference with VEGF binding to VEGFR-2 (VEGFR-2) | inhibition of VEGF-mediated angiogenesis [2]
1 | C=C(C)[C@@H]1CC[C@]2(C(=O)NCCCCCCCC(=O)N[C@@H](CC(C)C)[C@H](O)CC(=O)O)CC[C@]3(C)[C@H](CC[C@@H]4[C@@]5(C)CC[C@H](O)C(C)(C)[C@@H]5CC[C@]43C)[C@@H]12 [IC9564] | can inhibit both HIV primary isolates and laboratory-adapted strains | – | –
2 | ATWLPPR (homo sapiens) [ATWLPPR (SEQ ID NO: 2)] | – | effectively interfered | inhibited
